From patent US7338932B2, “Methods of modulating functions of polypeptide GalNAc-transferases and of screening test substances to find agents herefor, pharmaceutical compositions comprising such agents and the use of such agents for preparing medicaments” (Glycozym APS, priority 2000, dated 2008)

Molecular target: T1, GalNAc-T7 (Homo sapiens, UniProt Q86SF2)
T1 construct: made in house; host or cells: High Five insect cells (baculovirus)
T1 sequence (Q86SF2 30-657 limits assumed): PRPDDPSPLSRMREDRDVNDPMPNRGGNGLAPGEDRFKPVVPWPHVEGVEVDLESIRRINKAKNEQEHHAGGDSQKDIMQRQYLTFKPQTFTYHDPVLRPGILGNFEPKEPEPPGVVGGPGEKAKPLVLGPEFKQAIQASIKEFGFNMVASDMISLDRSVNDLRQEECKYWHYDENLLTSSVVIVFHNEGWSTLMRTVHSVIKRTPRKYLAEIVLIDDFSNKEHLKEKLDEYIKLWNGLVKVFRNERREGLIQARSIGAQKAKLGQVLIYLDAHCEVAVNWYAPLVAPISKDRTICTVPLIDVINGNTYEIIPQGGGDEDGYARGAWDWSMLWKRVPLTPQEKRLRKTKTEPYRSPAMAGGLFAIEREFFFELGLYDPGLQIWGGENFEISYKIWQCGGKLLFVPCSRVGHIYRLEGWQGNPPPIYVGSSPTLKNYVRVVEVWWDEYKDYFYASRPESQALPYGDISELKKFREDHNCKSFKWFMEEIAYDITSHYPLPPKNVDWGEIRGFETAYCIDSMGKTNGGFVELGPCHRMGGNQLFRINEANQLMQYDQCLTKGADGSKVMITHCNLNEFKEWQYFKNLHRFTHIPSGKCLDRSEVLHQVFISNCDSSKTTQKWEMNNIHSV
Experiment: Inhibition of GalNAc-T7 activity with GalNAc2-3EA2 substrate
Format: biochemical
Conditions: 5 mM
Protocol: Standard reaction mixtures (50 μl final volume) contained 25 mM cocadylate (pH 7.4), 10 mM MnCl2, 0.25% Triton X-100, 200 μM UDP-[^14C]-GalNAc (2,000 cpm/nmol) (Amersham), 200-500 μM acceptor peptides. Products were quantified by scintillation counting after chromatography on Dowex-1, octadecyl silica cartridges (Bakerbond), or HPLC (PC3.2/3 or mRPC C2/C18 SC2.1/10 Pharmacia, Smart System). […] Glycopeptides were purified on Supelclean LC-18 columns (1 ml, Supelco), and the number of GalNAc residues incorporated evaluated by MALDI-TOF mass spectrometry. The enzyme sources used were semipurified as previously described by successive sequential ion-exchange chromatographies on Amberlite (IRA95, Sigma) or DEAE Sephacel (Pharmacia), S-Sepharose Fast Flow (Pharmacia), and Mini-S™ (PC 3.2/3, Pharmacia) using the Smart System (Pharmacia) (28). Secreted GalNAc-T4 was obtained from a stably transfected CHO line (CHO/GalNA-T4/21A) (8) grown in roller bottles in HAMS F12 supplemented with 10% Fetal Bovine Serum. The experiments illustrated in FIG. 1 was performed with recombinant secreted GalNAc-T4 obtained from a stably transfected CHO line (8). Experiments illustrated in FIGS. 2 and 3 were performed with secreted GalNAc-T4 expressed in High Five cells grown in serum-free medium (8). Structural analysis of glycopeptides were performed by a combination of PFPA (pentafluoropropionic acid) hydrolysis and MALDI-TOF mass spectrometry as previously described (40). Secreted GalNAc-T7 was obtained from infected High Five™ cells grown in serum-free medium (Invitrogen) in upright roller bottles shaken 140 rpm in waterbaths at 27° C. GalNAc-T7 was not purified by Mini-S as the yields from cationic chromatography were low due to its low pI (6.4).
GalNAc-T7 activity was analysed with GalNAc glycosylated glycopeptides (represented by GalNAc2-3EA2 (7)) in reactions of 25 μl containing 2.5 nmol acceptor (glyco)peptide, 40 nmol UDP-GalNAc, and purified GalNAc-T7. […]

Inhibition of GalNAc-T7 activity with GalNAc2-3EA2: significantly inhibited
SMILES: CC(=O)N[C@H]1[C@@H](OCc2ccccc2)O[C@H](CO)[C@H](O)[C@@H]1O [GalNAcα-benzyl]
